Measurements: patent US12540115B2, “Inhibitors of phospholipid synthesis and methods of use” (priority 2019, dated 2026)

Experiments:
[1] = system: mouse hepatocellular carcinoma lines; test: Cancer cell proliferation, MTT assay on mouse hepatocellular carcinoma lines; assay type: cell-based; settings: treated 1-3 days, dosage range 1 mM to 0.1 nM; vs untreated (DMSO)
Experimental: (§1) FIG. 1-26 illustrate various exemplary GPAT inhibitors that suppress cancer cell proliferation. With reference to FIG. 1-26: BCL stands for Burkitt lymphoma line, all experiments on BCL were done using trypan blue and cell counts. Cells are treated 1-3 days with dosage range 1 mM to 0.1 nM. RCC stands for renal cell carcinoma, all experiments on RCC were in vivo experiments. Tumors are treated with dosage range 0.1 mg/kg to 100 mg/kg for X days, wherein X ranges from 7 to 30 days. All experiments are done in MTT assay on mouse hepatocellular carcinoma lines that are treated 1-3 days with the dosage range from 1 mM to 0.1 nM. The bar in each of FIGS. 1-26 entitled “Untreated” refers to a sample without an exemplary GPAT inhibitor compound, diluted in DMSO solvent.

[2] = system: Burkitt lymphoma line; test: Burkitt lymphoma line proliferation, trypan blue and cell counts; assay type: cell-based; settings: treated 1-3 days, dosage range 1 mM to 0.1 nM
Experimental: as §1

[3] = system: renal cell carcinoma; test: Renal cell carcinoma (RCC) in vivo tumor experiments; set-up: species or system mice; settings: dosage range 0.1 mg/kg to 100 mg/kg for 7 to 30 days
Experimental: as §1
MYC RCC mice were generated by crossing FVB/N-Tg(tetO-MYC)28aBop/J mice for MYC with Tg(Ggt1-tTA) #Agoc or (GGT-tTA) for kidney specificity. MYC HCC mice were generated by crossing FVB/N-Tg(tetO-MYC)28aBop/J mice for MYC with Tg(Cebpb-tTA)5Bjd or (LAP-tTA) for liver specificity. All parental lines had undergone at least 10 generations of backcrossing. MYC RCC and MYC HCC mice were bred on doxycycline until 4 weeks of age, when doxycycline was replaced with water for at least 2 weeks for tumorigenesis depending on the experiment described in the patent. […]

[4] = system: MYC-induced tumors; test: FSG67 in MYC-induced tumors, xenograft and primary mouse models; assay type: in vivo
Source text: We present a comprehensive overview of how the MYC oncogene controls lipogenesis to promote tumorigenesis. We find that MYC globally regulates the expression of key genes and their resulting proteins and metabolites in lipogenesis for human and murine cell lines as well as for transgenic mouse models. […] Desorption electrospray ionization mass spectrometric imaging (DESI-MSI) from tissue samples of several conditional transgenic mouse models identified in vivo metabolic changes in simple fatty acids and in complex phospholipids induced by MYC. […] Strong correlation between these in situ changes and elevation of gene expressions of cytidinediphosphate diacylglycerol pathway genes as well as fatty acid elongase genes were found. By administering FSG67, which inhibits GPAT, MYC-induced tumorigenesis was blocked, metabolic changes were suppressed, and tumors regressed in xenograft and primary mouse models.

[5] = system: diet-induced obese mice; settings: cited from earlier work
[6] = biological target: glycerol 3-phosphate acyltransferase (GPAT); settings: read-out: IC50, inhibitor of glycerol 3-phosphate acyltransferase (GPAT); cited from earlier work

Row | SMILES | cancer cell proliferation [1] | other results
1 | CCCCCCCCCS(=O)(=O)Nc1ccccc1C(=O)O [BTX 100] | suppresses cancer cell proliferation | 
2 | CC(C)CS(=O)(=O)Nc1ccccc1C(=O)O [BTX 106] |  | Burkitt lymphoma cell proliferation [2]: suppresses Burkitt lymphoma cell proliferation
3 | CCOCCS(=O)(=O)Nc1ccccc1C(=O)O [BTX 108] | suppresses cancer cell proliferation | 
4 | CC(C)S(=O)(=O)Nc1ccccc1C(=O)O [BTX 205] |  | renal cell carcinoma cell proliferation [3]: suppresses renal cell carcinoma cell proliferation
5 | CS(=O)(=O)Nc1ccccc1-c1nnn[nH]1 [BTX 281] | suppresses cancer cell proliferation | 
6 | CS(=O)(=O)Nc1ccccc1C(=O)O [BTX 601] | suppresses cancer cell proliferation | 
7 | CS(=O)(=O)Nc1ccccc1C#N [BTX 671] | suppresses cancer cell proliferation | 
8 | CS(=O)(=O)Nc1ccccc1CO [BTX 931] |  | Burkitt lymphoma cell proliferation [2]: suppresses Burkitt lymphoma cell proliferation
9 | CCCCS(=O)(=O)Nc1ccccc1-c1nnn[nH]1 [BTX 982] |  | Burkitt lymphoma cell proliferation [2]: suppresses Burkitt lymphoma cell proliferation
10 | O=C(O)c1ccccc1NS(=O)(=O)Cc1ccccc1 [BTX 1010] | suppresses cancer cell proliferation | 
11 | CCCCCCCCCS(=O)(=O)Nc1ccccc1F [BTX 1101] | suppresses cancer cell proliferation | 
12 | CCCCCCCCCS(=O)(=O)Nc1ccccc1Cl [BTX 2111] | suppresses cancer cell proliferation | 
13 | CCCCCCCCCS(=O)(=O)Nc1ccccc1Br [BTX 2121] | suppresses cancer cell proliferation | 
14 | CCCCCCCCCS(=O)(=O)N1C(=O)OCc2ccccc21 [BTX 2191] | suppresses cancer cell proliferation | 
15 | CCCCCCCCCS(=O)(=O)Nc1ccccc1S(C)(=O)=O [BTX 4171] | suppresses cancer cell proliferation | 
16 | CCCCCCCCCS(=O)(=O)Nc1ccccc1S(N)(=O)=O [BTX 8151] |  | Burkitt lymphoma cell proliferation [2]: suppresses Burkitt lymphoma cell proliferation
17 | CCCCCCCCCS(=O)(=O)Nc1ccccc1C(=O)NS(=O)(=O)C(F)(F)F [BTX 9141] |  | Burkitt lymphoma cell proliferation [2]: suppresses Burkitt lymphoma cell proliferation
18 | CCCCCCCCCNS(=O)(=O)c1ccccc1C(=O)O [BTX 9161] | suppresses cancer cell proliferation | 
19 | CCCCCCCCCN1C(=N)c2ccccc2S1(=O)=O [BTX 19102] | suppresses cancer cell proliferation | 
20 | CCCCCCCCCS(=O)(=O)Nc1ccccc1CO [BTX 83009] | suppresses cancer cell proliferation | 
21 | NC1=NS(=O)(=O)c2ccccc21 [BTX 291002] | suppresses cancer cell proliferation | 
22 | N#Cc1ccccc1S(N)(=O)=O [BTX 491001] | suppresses cancer cell proliferation | 
23 | CCCCCCCCCS(=O)(=O)Nc1ccccc1C(=O)O [FSG67, 2-(Nonylsulfonamido)benzoic acid] |  | MYC-induced tumorigenesis [4]: blocked; metabolic changes [4]: suppressed; tumors (regression) [4]: regressed; body weight and adiposity [5]: decrease body weight and adiposity; energy utilization as fatty acid oxidation [5]: enhance energy utilization as fatty acid oxidation; food intake [5]: reduce food intake; hepatic steatosis [5]: reverse hepatic steatosis; insulin sensitivity [5]: enhance insulin sensitivity; IC50 [6]: 24 µM
